Measured values published in the supplement of paper PMC11451515.

How the values were obtained:
Experiment in all cases: AUC of viability dose-response curve (% viability x log10 dose units); higher = less sensitive
Conditions in all cases: 48 h
NOMO1 = tested on: NOMO1
Outline: (§1)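 Medium-adapted leukemia cells in 1536-well plates, at 500 or 1000 cells/well, were incubated for 48 h at 37°C with library compounds in DMSO at 11 threefold doses from 47 μM to 0.79 nM. CellTiter-Glo One luminescence normalised per plate to DMSO and cell-free wells was fitted with a four-parameter log-logistic model over log10 doses. Area under the curve was integrated from this fit by trapezoidal rule, with curves beyond full viability scaled and failed quality-control curves removed.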

P12-Ichikawa = tested on: P12-Ichikawa
Outline: as §1

SEM cells = tested on: SEM cells
Outline: as §1

[1] = RPMI 5 mM glucose + 10% dialyzed FBS

Structure (SMILES): CCC(=O)N[C@H]1CC[C@H](C(=O)N(C)c2ccc(-c3nc4ccccc4o3)cc2)C1
- AUC of viability dose-response curve (NOMO1; HPLM + 10% dialyzed FBS): 454
- AUC of viability dose-response curve (NOMO1; RPMI 5 mM glucose + 10% FBS): 449
- AUC of viability dose-response curve (NOMO1; [1]): 415
- AUC of viability dose-response curve (P12-Ichikawa; HPLM + 10% dialyzed FBS): 477
- AUC of viability dose-response curve (P12-Ichikawa; RPMI 5 mM glucose + 10% FBS): 458
- AUC of viability dose-response curve (P12-Ichikawa; [1]): 453

Structure (SMILES): CN(C)CC[C@H](c1ccc(Cl)cc1)c1ccccn1
- AUC of viability dose-response curve (SEM cells; HPLM + 10% dialyzed FBS): 376
- AUC of viability dose-response curve (SEM cells; RPMI 5 mM glucose + 10% FBS): 438
- AUC of viability dose-response curve (SEM cells; [1]): 414
- AUC of viability dose-response curve (NOMO1; HPLM + 10% dialyzed FBS): 378
- AUC of viability dose-response curve (NOMO1; RPMI 5 mM glucose + 10% FBS): 382
- AUC of viability dose-response curve (NOMO1; [1]): 412
- AUC of viability dose-response curve (P12-Ichikawa; HPLM + 10% dialyzed FBS): 413
- AUC of viability dose-response curve (P12-Ichikawa; RPMI 5 mM glucose + 10% FBS): 388
- AUC of viability dose-response curve (P12-Ichikawa; [1]): 379

Structure (SMILES): C[S+](=O)([O-])c1ccc(-c2cnc(N)c(C(=O)Nc3ccccc3)n2)cc1
- AUC of viability dose-response curve (SEM cells; HPLM + 10% dialyzed FBS): 413
- AUC of viability dose-response curve (SEM cells; RPMI 5 mM glucose + 10% FBS): 423
- AUC of viability dose-response curve (SEM cells; [1]): 408
- AUC of viability dose-response curve (NOMO1; HPLM + 10% dialyzed FBS): 435
- AUC of viability dose-response curve (NOMO1; RPMI 5 mM glucose + 10% FBS): 462
- AUC of viability dose-response curve (NOMO1; [1]): 455
- AUC of viability dose-response curve (P12-Ichikawa; HPLM + 10% dialyzed FBS): 462
- AUC of viability dose-response curve (P12-Ichikawa; RPMI 5 mM glucose + 10% FBS): 453
- AUC of viability dose-response curve (P12-Ichikawa; [1]): 449

Structure (SMILES): O=C(O)CCn1c2c(c3ccccc31)C[C@H](N[S+](=O)([O-])c1ccc(F)cc1)CC2
- AUC of viability dose-response curve (SEM cells; HPLM + 10% dialyzed FBS): 471
- AUC of viability dose-response curve (SEM cells; RPMI 5 mM glucose + 10% FBS): 449
- AUC of viability dose-response curve (SEM cells; [1]): 472
- AUC of viability dose-response curve (NOMO1; HPLM + 10% dialyzed FBS): 458
- AUC of viability dose-response curve (NOMO1; RPMI 5 mM glucose + 10% FBS): 457
- AUC of viability dose-response curve (NOMO1; [1]): 448
- AUC of viability dose-response curve (P12-Ichikawa; HPLM + 10% dialyzed FBS): 465
- AUC of viability dose-response curve (P12-Ichikawa; RPMI 5 mM glucose + 10% FBS): 468
- AUC of viability dose-response curve (P12-Ichikawa; [1]): 453

Structure (SMILES): C[C@@H](NC(=O)c1ncnc(N)c1Cl)c1ncc(C(=O)Nc2cc(C(F)(F)F)c(Cl)cn2)s1
- AUC of viability dose-response curve (SEM cells; HPLM + 10% dialyzed FBS): 470
- AUC of viability dose-response curve (SEM cells; RPMI 5 mM glucose + 10% FBS): 467
- AUC of viability dose-response curve (SEM cells; [1]): 467
- AUC of viability dose-response curve (NOMO1; HPLM + 10% dialyzed FBS): 451
- AUC of viability dose-response curve (NOMO1; RPMI 5 mM glucose + 10% FBS): 460
- AUC of viability dose-response curve (NOMO1; [1]): 453
- AUC of viability dose-response curve (P12-Ichikawa; HPLM + 10% dialyzed FBS): 461
- AUC of viability dose-response curve (P12-Ichikawa; RPMI 5 mM glucose + 10% FBS): 449
- AUC of viability dose-response curve (P12-Ichikawa; [1]): 448

Structure (SMILES): C[C@]12CC[C@H]3[C@@H](C\C=C/4C[C@@H](O)CC[C@]34C)[C@@H]1CCC2=O
- AUC of viability dose-response curve (SEM cells; HPLM + 10% dialyzed FBS): 468
- AUC of viability dose-response curve (SEM cells; RPMI 5 mM glucose + 10% FBS): 454
- AUC of viability dose-response curve (SEM cells; [1]): 462
- AUC of viability dose-response curve (NOMO1; HPLM + 10% dialyzed FBS): 439
- AUC of viability dose-response curve (NOMO1; RPMI 5 mM glucose + 10% FBS): 448
- AUC of viability dose-response curve (NOMO1; [1]): 460
- AUC of viability dose-response curve (P12-Ichikawa; HPLM + 10% dialyzed FBS): 449
- AUC of viability dose-response curve (P12-Ichikawa; RPMI 5 mM glucose + 10% FBS): 438
- AUC of viability dose-response curve (P12-Ichikawa; [1]): 454

Structure (SMILES): COc1cc([C@H]2Oc3cc([C@H]4Oc5cc(O)cc(O)c5C(=O)[C@@H]4O)ccc3O[C@@H]2CO)ccc1O
- AUC of viability dose-response curve (SEM cells; HPLM + 10% dialyzed FBS): 455
- AUC of viability dose-response curve (SEM cells; RPMI 5 mM glucose + 10% FBS): 473
- AUC of viability dose-response curve (SEM cells; [1]): 467
- AUC of viability dose-response curve (NOMO1; HPLM + 10% dialyzed FBS): 470
- AUC of viability dose-response curve (NOMO1; RPMI 5 mM glucose + 10% FBS): 465
- AUC of viability dose-response curve (NOMO1; [1]): 452
- AUC of viability dose-response curve (P12-Ichikawa; HPLM + 10% dialyzed FBS): 464
- AUC of viability dose-response curve (P12-Ichikawa; RPMI 5 mM glucose + 10% FBS): 446
- AUC of viability dose-response curve (P12-Ichikawa; [1]): 456

Structure (SMILES): CC(C)c1ccc(Cn2ccc3c4c(N)nc(NC5CC5)nc4ccc32)cc1
- AUC of viability dose-response curve (SEM cells; HPLM + 10% dialyzed FBS): 343
- AUC of viability dose-response curve (SEM cells; RPMI 5 mM glucose + 10% FBS): 383
- AUC of viability dose-response curve (SEM cells; [1]): 390
- AUC of viability dose-response curve (NOMO1; HPLM + 10% dialyzed FBS): 339
- AUC of viability dose-response curve (NOMO1; RPMI 5 mM glucose + 10% FBS): 409
- AUC of viability dose-response curve (NOMO1; [1]): 384
- AUC of viability dose-response curve (P12-Ichikawa; HPLM + 10% dialyzed FBS): 343
- AUC of viability dose-response curve (P12-Ichikawa; RPMI 5 mM glucose + 10% FBS): 392
- AUC of viability dose-response curve (P12-Ichikawa; [1]): 368

Structure (SMILES): CN1CCN2c3ncccc3Cc3ccccc3C2C1 (stereo not given)
- AUC of viability dose-response curve (P12-Ichikawa; HPLM + 10% dialyzed FBS): 470
- AUC of viability dose-response curve (P12-Ichikawa; RPMI 5 mM glucose + 10% FBS): 460
- AUC of viability dose-response curve (P12-Ichikawa; [1]): 463

Structure (SMILES): O=C1Nc2ccc(I)cc2/C1=C/c1cc(Br)c(O)c(Br)c1
- AUC of viability dose-response curve (SEM cells; HPLM + 10% dialyzed FBS): 466
- AUC of viability dose-response curve (SEM cells; RPMI 5 mM glucose + 10% FBS): 457
- AUC of viability dose-response curve (SEM cells; [1]): 451
- AUC of viability dose-response curve (NOMO1; HPLM + 10% dialyzed FBS): 469
- AUC of viability dose-response curve (NOMO1; RPMI 5 mM glucose + 10% FBS): 457
- AUC of viability dose-response curve (NOMO1; [1]): 448
- AUC of viability dose-response curve (P12-Ichikawa; HPLM + 10% dialyzed FBS): 469
- AUC of viability dose-response curve (P12-Ichikawa; RPMI 5 mM glucose + 10% FBS): 468
- AUC of viability dose-response curve (P12-Ichikawa; [1]): 458

Structure (SMILES): CCN(C(=O)C/1=C(O)/C2=C(C=CC=C2Cl)N(C)C1=O)C3=CC=CC=C3
- AUC of viability dose-response curve (SEM cells; HPLM + 10% dialyzed FBS): 272
- AUC of viability dose-response curve (SEM cells; RPMI 5 mM glucose + 10% FBS): 258
- AUC of viability dose-response curve (SEM cells; [1]): 250
- AUC of viability dose-response curve (NOMO1; HPLM + 10% dialyzed FBS): 319
- AUC of viability dose-response curve (NOMO1; RPMI 5 mM glucose + 10% FBS): 306
- AUC of viability dose-response curve (NOMO1; [1]): 328
- AUC of viability dose-response curve (P12-Ichikawa; HPLM + 10% dialyzed FBS): 356
- AUC of viability dose-response curve (P12-Ichikawa; RPMI 5 mM glucose + 10% FBS): 322
- AUC of viability dose-response curve (P12-Ichikawa; [1]): 308
